Measurements published in ChEMBL document CHEMBL1150557, “Molecular design of novel PGI2 agonists without PG skeleton. I” (Bioorg Med Chem Lett, 1995).

target: Prostacyclin receptor (Homo sapiens, UniProt P43119); experiment: Prostaglandin I2 receptor binding by displacement of [3H]iloprost from human platelets
Sequence (P43119 whole entry): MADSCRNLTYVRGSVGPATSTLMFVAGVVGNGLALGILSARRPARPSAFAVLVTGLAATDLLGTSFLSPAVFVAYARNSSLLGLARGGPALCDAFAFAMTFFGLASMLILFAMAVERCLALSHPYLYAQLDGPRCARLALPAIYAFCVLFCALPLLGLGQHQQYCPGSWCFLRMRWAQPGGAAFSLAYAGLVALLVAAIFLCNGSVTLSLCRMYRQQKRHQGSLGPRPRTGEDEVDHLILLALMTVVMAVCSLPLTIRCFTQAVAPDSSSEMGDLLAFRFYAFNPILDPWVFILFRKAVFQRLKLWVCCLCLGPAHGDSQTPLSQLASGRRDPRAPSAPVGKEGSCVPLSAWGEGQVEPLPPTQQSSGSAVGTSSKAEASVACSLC

Row | IC50 | Compound
1 | 3.9 µM | O=C(O)COc1cccc(CCC/C=N/OC(c2ccccc2)c2ccccc2)c1
2 | 23 µM | CCCCCC(O)/C=C/CCCc1cccc(OCC(=O)O)c1 (configuration not stated)
3 | 9.6 µM | CCCCCC(O)/C=C/CCC1CCCc2c(OCC(=O)O)cccc21 (configuration not stated)
4 | 3 µM | O=C(O)COc1cccc2c1CCC(C/C=C\CC(c1ccccc1)c1ccccc1)C2 (configuration not stated)
5 | 0.6 µM | O=C(O)COc1cccc2c1CCCC2CC/C=N/OC(c1ccccc1)c1ccccc1 (configuration not stated)
6 | 4.9 µM | O=C(O)COc1cccc2c1CCC(C/C=C/C(O)Cc1ccccc1)C2 (configuration not stated)
7 | 7.8 µM | CCCCCC(O)/C=C/CC1CCc2c(cccc2OCC(=O)O)C1 (configuration not stated)
8 | 0.65 µM | O=C(O)COc1cccc2c1CCC(C/C=N/OC(c1ccccc1)c1ccccc1)C2 (configuration not stated)
9 | 3.1 µM | O=C(O)COc1cccc2c1CCC(C/C=C/CC(c1ccccc1)c1ccccc1)C2 (configuration not stated)
10 | 5.3 µM | O=C(O)COc1cccc2c1CCC(C/C=C/CCc1ccccc1)C2 (configuration not stated)

species on record: Homo sapiens; experiment: Evaluated for inhibition of 4 uM ADP-induced human platelet aggregation; assay type: functional, organism-based

Row | IC50 | Compound
11 | 2.1 µM | O=C(O)COc1cccc2c1CCCC2CC/C=N/OC(c1ccccc1)c1ccccc1 (configuration not stated)
12 | 1.1 µM | O=C(O)COc1cccc2c1CCC(C/C=N/OC(c1ccccc1)c1ccccc1)C2 (configuration not stated)
